Data set [1] concerns Me 191-I/GG (Primary) melanoma cells. Nature of the data set: MTS assay of cell viability after BQ788. It counts as cell-based. The settings on record: incubation with BQ788 for seven days; Primary line. On the procedure: Cells were cultured on a matrigel matrix that was histologically examined after two weeks (A-F). While the primary melanoma cells remained on top of the gel only (A and B), a fraction of the Cut-met cells invaded the gel (C and D) and the LN-met cells invaded the matrix extensively (E and F). Cell lysates of the three lines were subjected to western blot analysis using an anti-ETRB Ab (G) and an anti-tubulin Ab (H). Untreated, control (vehicle treated), and BQ788 treated cells were subjected to MTS assay to quantify any reduction in cell number. The mean values were calculated and plotted (I) as the percentage of the vehicle treated value+/− SEM.
Human melanoma cell lines Me191-1/GG (Primary), Me 190/DA (Cut-met), Me 275/EP (LN-met) were obtained from the Ludwig Institute (Epalinges, Switzerland) and SK-MEL-28 was obtained from the American Tissue Culture Collection (ATCC). […] After removal of the inserts, MTS solution was added to the well to quantify the cells that migrated through the insert and were attached to the bottom of the well by measuring the OD at 492 nm (Promega). […]
To address the relationship between the level of progression of human melanoma and responsiveness to BQ788 treatment, 3 cell lines that had been grown in culture for a restricted number of passages were used. […] This effect was quantified using the MTS assay.
In general terms: Tetrazolium assays rely on reduction of a dye to a coloured formazan, in cell work by metabolically active cells.

Data set [2] has as its system tumors derived from a human melanoma cell line grown in nude mice. The settings on record: cited from earlier work.
In a further data set the test system is kidney cells. Nature of the data set: MTS assay, number of viable cells. It counts as cell-based. The following applies: high concentrations of BQ788.

The structures appear in SMILES notation.

`CCCC[C@@H](NC(=O)[C@@H](Cc1cn(C(=O)OC)c2ccccc12)NC(=O)[C@H](CC(C)(C)C)NC(=O)N1[C@H](C)CCC[C@@H]1C)C(=O)O` [BQ788, N-cis-2,6-dimethylpiperidinocarbonyl-L-γ-methylleucyl-D-1-methoxycarbonyltrptophanyl-D-norleucine]: the “reduction in cell number” value in data set [1] was determined as 12%. Further, the tumor growth result in data set [2] (human melanoma tumors in nude mice injected with BQ788) is “inhibition of growth”. Besides, the tumor size entry in data set [2] (tumors treated systemically, nude mice) was “shrinkage of tumors”. Besides, the “number of kidney cells” value in the data set on kidney cells is recorded as “not reduced”.

These data come from patent publication US20060094676A1, “Compositions and methods for treating cancer using compositions comprising an inhibitor of endothelin receptor activity” (priority 2004, published 2006).
